US9750698B2, “Controlled release compositions of agents that reduce circulating levels of platelets and methods therefor” (BioVascular, Inc., priority 2008, dated 2017)

What was measured:
[1] = Repeat-dose dose-escalation study of controlled release anagrelide: pharmacokinetics; type: in vivo, human; conditions: for AUC0-inf / AUC0-t / AUC0-τ / Cmax: dose-normalized to 0.2 mg
Method: A placebo-controlled, double-blind repeat-dose, dose-escalation, sequential cohort study was conducted to evaluate the pharmacokinetics and pharmacodynamics of a controlled release composition of anagrelide as described herein in healthy subjects. An objective of the study was to explore the dose-response relationship for effects on platelet counts of a low dose range of a composition of anagrelide as described herein in healthy subjects. Other objectives of the study included determining the time course of effect and recovery of a range of doses of the composition including anagrelide on platelet count, determining the effects of a range of doses of the anagrelide compositions on platelet aggregation (collagen and ADP as agonists), determining the single and repeat dose pharmacokinetics of the anagrelide composition, and exploring the safety and tolerability of the compositions given as single doses and repeatedly for up to 21 days.
Eligible subjects were treated as follows: • Subjects were admitted to the unit on day 1 in the morning after an overnight fast and remain in the unit until 4 hours after morning dosing on day 5. • Subjects received a single dose of controlled release composition including anagrelide (or matching placebo) on day 1 in the morning. • Subjects commenced repeat dosing twice a day with the controlled release anagrelide composition on the morning of day 3 and remained in the unit until 4 hours after morning dose on day 5. • Subjects continued repeat twice a day dosing with the controlled release anagrelide composition as outpatients. Dosing continued until the morning of day 23. • All morning doses were taken after an overnight fast of at least 8 hour. • All evening doses were taken at least 2 hour after food consumption. No food was to be consumed for at least 1 hour after any dose (4 hours for the morning doses on day 1 and day 23). • On day 6-day 21, blood was taken pre-dosing of the controlled release anagrelide composition for full blood count (FBC) and platelet count (every day), trough PK (day 7, day 10, day 13, day 16 and day 19) and clinical chemistry (day 13). • Subjects were readmitted to the unit on the morning of day 22 and remained there until day 25 so that the PK of the final dose of the controlled release composition containing anagrelide on day 23 could be followed for 48 hours. • Subjects returned to the clinic daily from day 26 to day 31 for FBC and platelet counts. • Subjects returned for a follow up visit 14-16 days after the last dose of the controlled release composition containing anagrelide. Study Population:
A controlled release composition of anagrelide as described above in Table 4 of Example 1 (composition 2 fast release with seal coat) was used in unit doses of 100 μg and 300 μg, administered orally.
In this protocol, 4 cohorts of 200 μg, 300 μg, 400 μg and 600 μg doses of the controlled release composition including anagrelide administered twice daily were studied.
Platelet count, collagen-induced platelet aggregation, ADP induced platelet aggregation, template bleeding time, AUC0-t, AUC0-∞, Cmax, Cmin, t1/2, λZ and tmax were determined.
The starting dose of 200 μg (as a single dose on day 1 and then twice a day for 21 days) was chosen as a dose unlikely to cause any clinically significant reduction in platelet counts in healthy subjects. This starting dose was chosen because identification of the lowest dose of the controlled release composition containing anagrelide producing any effect on platelet counts was of interest. In each subsequent cohort the dose was increased by […] twice a day with the objective of identifying the dose range that lowers platelet counts by 30-50%. With daily monitoring of platelet counts, this escalation was determined to allow identification of the effective dose range of the controlled release composition of anagrelide without placing the subjects at significant clinical risk.

PDEIII = conditions: cited from earlier work
[2] = 38 volunteers, single 1 mg dose of immediate release anagrelide (Agrylin); cited from earlier work
cultured megakaryocytes = conditions: cited from earlier work
[3] = commercially available instant release formulation; cited from earlier work
[4] = patients with ET or other myeloproliferative diseases; cited from earlier work
[5] = Pre-formulation excipient compatibility by high sensitivity isothermal calorimetry; type: physicochemical; conditions: binary mixture 1:1, isothermal calorimetry, 24 hours, 30-80° C.
Method: Pre-formulation studies utilizing binary mixtures of the API with various excipients (ethylcellulose, Eudragit® RS and RL, Aquacoat® ECD30, ammonium oleate and Surelease® E7 1904) were conducted using a high sensitivity calorimeter in isothermal mode. Excipients were compared on their own and as mixtures with/without saturated sodium chloride solution present. In this technique, the heat changes in samples (API alone, excipient alone, API:excipient (1:1 ratio)) were monitored over 24 hours at a temperature range of 30-80° C. […] Improved dosage forms were formed by employing ethylcellulose in the excipient system and a mode of application including organic (ethanol) spray application due to the insolubility of ethylcellulose in water.

Compound: O=C1NC2=Nc3ccc(Cl)c(Cl)c3CN2C1O (centres unmarked) [3-Hydroxy-Anagrelide]
- Kel ([1]; cohort 1 (0.2 mg), day 1): 0.0985 h⁻¹
- t1/2 ([1]; cohort 1 (0.2 mg), day 1): 7.78 h
- Kel ([1]; cohort 1 (0.2 mg), day 23): 0.0608 h⁻¹
- t1/2 ([1]; cohort 1 (0.2 mg), day 23): 12.69 h
- Kel ([1]; cohort 2 (0.4 mg), day 1): 0.0641 h⁻¹
- t1/2 ([1]; cohort 2 (0.4 mg), day 1): 11.64 h
- Kel ([1]; cohort 2 (0.4 mg), day 23): 0.0527 h⁻¹
- t1/2 ([1]; cohort 2 (0.4 mg), day 23): 13.77 h
- Kel ([1]; cohort 3 (0.6 mg), day 1): 0.0673 h⁻¹
- t1/2 ([1]; cohort 3 (0.6 mg), day 1): 12.87 h
- Kel ([1]; cohort 4 (0.3 mg), day 1): 0.0596 h⁻¹
- t1/2 ([1]; cohort 4 (0.3 mg), day 1): 15.30 h
- Kel ([1]; cohort 4 (0.3 mg), day 23): 0.0492 h⁻¹
- t1/2 ([1]; cohort 4 (0.3 mg), day 23): 15.13 h
- AUC0-inf ([1]; cohort 1 (0.2 mg), day 1): 4.6957 ng·h/mL
- AUC0-t ([1]; cohort 1 (0.2 mg), day 1): 4.04622 ng·h/mL
- AUC0-τ ([1]; cohort 1 (0.2 mg), day 1): 4.17916 ng·h/mL
- Cmax ([1]; cohort 1 (0.2 mg), day 1): 0.61542 ng/mL
- AUC0-inf ([1]; cohort 1 (0.2 mg), day 23): 7.27841 ng·h/mL
- AUC0-τ ([1]; cohort 1 (0.2 mg), day 23): 5.66247 ng·h/mL
- Cmax ([1]; cohort 1 (0.2 mg), day 23): 0.75569 ng/mL
- AUC0-inf ([1]; cohort 2 (0.4 mg), day 1): 3.98674 ng·h/mL
- AUC0-t ([1]; cohort 2 (0.4 mg), day 1): 3.36645 ng·h/mL
- AUC0-τ ([1]; cohort 2 (0.4 mg), day 1): 3.04925 ng·h/mL
- Cmax ([1]; cohort 2 (0.4 mg), day 1): 0.35828 ng/mL
- AUC0-inf ([1]; cohort 2 (0.4 mg), day 23): 6.18331 ng·h/mL
- AUC0-τ ([1]; cohort 2 (0.4 mg), day 23): 4.8106 ng·h/mL
- Cmax ([1]; cohort 2 (0.4 mg), day 23): 0.5158 ng/mL
- AUC0-inf ([1]; cohort 3 (0.6 mg), day 1): 4.6058 ng·h/mL
- AUC0-t ([1]; cohort 3 (0.6 mg), day 1): 3.93912 ng·h/mL
- AUC0-τ ([1]; cohort 3 (0.6 mg), day 1): 3.50858 ng·h/mL
- Cmax ([1]; cohort 3 (0.6 mg), day 1): 0.44422 ng/mL
- AUC0-inf ([1]; cohort 4 (0.3 mg), day 1): 4.46186 ng·h/mL
- AUC0-t ([1]; cohort 4 (0.3 mg), day 1): 3.40306 ng·h/mL
- AUC0-τ ([1]; cohort 4 (0.3 mg), day 1): 2.99087 ng·h/mL
- Cmax ([1]; cohort 4 (0.3 mg), day 1): 0.40142 ng/mL
- AUC0-inf ([1]; cohort 4 (0.3 mg), day 23): 5.45894 ng·h/mL
- AUC0-τ ([1]; cohort 4 (0.3 mg), day 23): 4.28075 ng·h/mL
- Cmax ([1]; cohort 4 (0.3 mg), day 23): 0.45837 ng/mL
- Tmax (median) ([1]; cohort 1 (0.2 mg), day 1): 4.01 h
- Tmax (median) ([1]; cohort 1 (0.2 mg), day 23): 3.00 h
- Tmax (median) ([1]; cohort 2 (0.4 mg), day 1): 3.51 h
- Tmax (median) ([1]; cohort 2 (0.4 mg), day 23): 3.02 h
- Tmax (median) ([1]; cohort 3 (0.6 mg), day 1): 4.00 h
- Tmax (median) ([1]; cohort 4 (0.3 mg), day 1): 3.61 h
- Tmax (median) ([1]; cohort 4 (0.3 mg), day 23): 3.00 h

Compound: O=C1NC2=Nc3ccc(Cl)c(Cl)c3CN2C1O (centres unmarked) [3-hydroxy anagrelide, 6,7-dichloro-3-hydroxy-1,5-dihydro-imidazo[2,1-b]quinazolin-2-one]
- Potency as PDEIII inhibitor relative to anagrelide (PDEIII): 40 times
- AUC0-inf ± RSD (%) [2]: 18.0 ± 35.6 ng·h/mL
- Cmax ± RSD (%) [2]: 5.47 ± 56.9 ng/mL
- Tmax ± RSD (%) [2]: 1.28 ± 58.1 h
- t1/2 ± RSD (%) [2]: 2.5 ± 28.7 h
- In vitro effects on megakaryocytopoiesis relative to anagrelide (cultured megakaryocytes): equipotent
- Terminal half-life [3]: 3.9 h
- Observed half-life [4]: 3.9 h
- Share of all drug-related products in the plasma [4]: about 45%

Compound: Cl.O.O=C1CN2Cc3c(ccc(Cl)c3Cl)N=C2N1 [API, 6,7-dichloro-1,5-dihydroimidazo-[2,1-b]quinazolin-2(3H)-one mono-hydrochloride monohydrate]
- Compatibility with Aquacoat [5]: not conclusive as to compatibility
- Compatibility with Eudragit (RS and RL) [5]: showed evidence of incompatibility
- Compatibility with Surelease [5]: showed evidence of incompatibility
- Compatibility with ammonium oleate [5]: showed evidence of incompatibility
- Compatibility with ethylcellulose [5]: showed evidence of compatibility

Compound: NC1=Nc2ccc(Cl)c(Cl)c2CN1 [RL603, 2-amino-5,6-dichloro-3,4-dihydroquinazoline]
- Activity against PDE III (PDEIII): essentially inactive
- AUC0-inf ± RSD (%) [2]: 16.0 ± 32.3 ng·h/mL
- Cmax ± RSD (%) [2]: 1.36 ± 34.0 ng/mL
- Tmax ± RSD (%) [2]: 2.5 ± 58.5 h
- t1/2 ± RSD (%) [2]: 7.8 ± 31.1 h
- Activity on TPO-induced stimulation of megakaryocytes / megakaryocytopoiesis (cultured megakaryocytes): essentially inactive
- Observed half-life [4]: 8.7 h
- Share of all drug-related products in the plasma [4]: about 33%
